The source of these data is PMC11492426, “Design, synthesis, and biological evaluation of novel quinoline-based EGFR/HER-2 dual-target inhibitors as potential anti-tumor agents” (RSC Advances, 2024).

Data set [1] is described as follows: Cell viability assay (MTT) on MCF-10A normal cells. It is filed as cell-based. The settings on record: human, MCF-10A mammary gland epithelial normal cells, MCF-10A cells, four-day incubation. As for the experimental part: The impact of compounds 3a–h and 5a–d on cell viability was evaluated using the human mammary (MCF-10A) gland epithelium normal cell line. The MTT assay was used to evaluate the cell viability of 3a–h and 5a–d after a four-day incubation period on MCF-10A cells.[46] Refer to Appendix A for more details.
The effect of new compounds 3a–h and 5a–d on cell viability was evaluated using the MCF-10A (human mammary gland epithelium) normal cell line.
4.2. Biological evaluation
4.2.1 Cell Viability assay (MTT assay)
MTT assay was performed to investigate the effect of the synthesized compounds on mammary epithelial cells (MCF-10A). The cells were propagated in medium consisting of Ham's F-12 medium/ Dulbecco's modified Eagle's medium (DMEM) (1:1) supplemented with 10% foetal calf serum, 2 mM glutamine, insulin (10 μg/mL), hydrocortisone (500 ng/mL) and epidermal growth factor (20 ng/mL). Trypsin ethylenediamine tetra acetic acid (EDTA) was used to passage the cells after every 2-3 days. 96-well flat-bottomed cell culture plates were used to seed the cells at a density of 10^4 cells mL-1. The medium was aspirated from all the wells of culture plates after 24 h followed by the addition of synthesized compounds (in 200 μL medium to yield a final concentration of 0.1% (v/v) dimethyl sulfoxide) into individual wells of the plates. Four wells were designated to a single compound. The plates were allowed to incubate at 37°C for 96 h. Afterwards, the medium was aspirated and 3-[4,5-dimethylthiazol-2-yl]-2,5-diphenyltetrazolium bromide (MTT) (0.4 mg/mL) in medium was added to each well and subsequently incubated for 3 h. The medium was aspirated and 150 μL dimethyl sulfoxide (DMSO) was added to each well. The plates were vortexed followed by the measurement of absorbance at 540 nm on a microplate reader. The results were presented as inhibition (%) of proliferation in contrast to controls comprising 0.1% DMSO.

For the next data set, the system named is Caspase-8. Nature of the data set: Caspase-8 activation assay in MCF-7 cells. The note with it: for Caspase-8 Conc.: treated at IC50 concentration; for Caspase-8 Fold change: versus untreated control. Format: cell-based, human.
Data set [2] relates to HT-29 colon cancer cell line. Nature of the data set: Antiproliferative assay, HT-29. The settings on record: Homo sapiens; HT-29 colon cancer cells; read-out: Antiproliferative activity IC50 ± SEM, HT-29. Format: cell-based.
The next data set has as its target HER2 (Homo sapiens, UniProt P04626). Nature of the data set: HER2 inhibitory assay (ADP-Glo kinase assay). (In general: ADP-Glo first removes unused ATP, then detects ADP through luciferase.)
In data set [3] the test system is Panc-1 pancreatic cancer cell line. Nature of the data set: Antiproliferative assay, Panc-1. Format: cell-based. The settings on record: Homo sapiens; Panc-1 pancreatic cancer cells; read-out: Antiproliferative activity IC50 ± SEM, Panc-1.
Data set [4] deals with MCF-7 breast cancer cell line. Nature of the data set: Antiproliferative assay, MCF-7. The settings on record: Homo sapiens, MCF7; MCF-7 breast cancer cells; read-out: Antiproliferative activity IC50 ± SEM, MCF-7. It is filed as cell-based.
Data set [5] relates to four human cancer cell lines (A-549, MCF-7, Panc-1, HT-29). The data set can be described thus: Antiproliferative assay, average over four cancer cell lines. Format: cell-based. The settings on record: Homo sapiens, average IC50 over the four cancer cell lines.
A further data set deals with Bcl-2. The data set can be described thus: Bcl-2 inhibition assay in MCF-7 cells. It is filed as cell-based, human. The settings on record: for Bcl-2 Conc.: treated at IC50 values. As to the method: Additionally, the treatment led to a notable reduction in anti-apoptotic Bcl-2 expression levels, with a fold decrease of roughly 6 for compound 3e and 8 for compound 5a. Compounds 3e and 5a markedly elevated the Bax/Bcl-2 ratio compared to the control untreated cells. […]
4.2.8. Bcl-2 inhibition assay
Mix all reagents thoroughly without foaming before use. Wash the microwells twice with approximately 300 μL Wash Buffer per well with thorough aspiration of microwell contents between washes. Take caution not to scratch the surface of the microwells. After the last wash, empty the wells and tap microwell strips on absorbent pad or paper towel to remove excess Wash Buffer. Use the microwell strips immediately after washing or place upside down on a wet absorbent paper for not […]
longer than 15 minutes. […] Add 100 μL of Sample Diluent in duplicate to all standard wells and to the blank wells. Prepare standard (1:2 dilution) in duplicate ranging from 32 ng/mL to 0.5 ng/mL. Add 100 μL of Sample Diluent, in duplicate, to the blank wells. Add 80 μL of Sample Diluent, in duplicate, to the sample wells. Add 20 μL of each Sample, in duplicate, to the designated wells. Add 50 μL of diluted biotin-conjugate to all wells, including the blank wells. Cover with a plate cover and incubate at room temperature, on a microplate shaker at 100 rpm if available, for 2 hours. Remove plate cover and empty the wells. Wash microwell strips 3 times as described in step 2. Add 100 μL of diluted Streptavidin-HRP to all wells, including the blank wells. Cover with a plate cover and incubate at room temperature, on a microplate shaker at 100 rpm if available, for 1 hour. Remove plate cover and empty the wells. Wash microwell strips 3 times as described in step 2.
Proceed to the next step. Pipette 100 μl of mixed TMB Substrate Solution to all wells, including the blanks. Incubate the microwell strips at room temperature (18° to 25°C) for about 15 minutes, if available on a rotator set at 100 rpm. Avoid direct exposure to intense light. The point, at which the substrate reaction is stopped, is often determined by the ELISA reader. Many ELISA readers record absorbance only up to 2.0 O.D. Therefore, the color development within individual microwells must be watched by the person running the assay and the substrate reaction stopped before positive wells are no longer properly detectable. Stop the enzyme reaction by quickly pipetting 100 μL of Stop Solution into each well, including the blank wells. It is important that the Stop Solution is spread quickly and uniformly throughout the microwells to completely inactivate the enzyme. Results must be read immediately after the Stop Solution is added or within one hour if the microwell strips are stored at 2 - 8°C in the dark. Read absorbance of each microwell on a spectrophotometer using 450 nm as the primary wavelength.
4.3. Statistical analysis
Computerized Prism 5 program was used to statistically analyzed data using one-way ANOVA test followed by Tukey’s as post ANOVA for multiple comparison at P ≤.05. Data were presented as […]

A further data set has as its target EGFR (Homo sapiens, UniProt P00533). Nature of the data set: EGFR inhibitory assay (EGFR-TK assay).

Chain of EGFR (P00533 669-1210): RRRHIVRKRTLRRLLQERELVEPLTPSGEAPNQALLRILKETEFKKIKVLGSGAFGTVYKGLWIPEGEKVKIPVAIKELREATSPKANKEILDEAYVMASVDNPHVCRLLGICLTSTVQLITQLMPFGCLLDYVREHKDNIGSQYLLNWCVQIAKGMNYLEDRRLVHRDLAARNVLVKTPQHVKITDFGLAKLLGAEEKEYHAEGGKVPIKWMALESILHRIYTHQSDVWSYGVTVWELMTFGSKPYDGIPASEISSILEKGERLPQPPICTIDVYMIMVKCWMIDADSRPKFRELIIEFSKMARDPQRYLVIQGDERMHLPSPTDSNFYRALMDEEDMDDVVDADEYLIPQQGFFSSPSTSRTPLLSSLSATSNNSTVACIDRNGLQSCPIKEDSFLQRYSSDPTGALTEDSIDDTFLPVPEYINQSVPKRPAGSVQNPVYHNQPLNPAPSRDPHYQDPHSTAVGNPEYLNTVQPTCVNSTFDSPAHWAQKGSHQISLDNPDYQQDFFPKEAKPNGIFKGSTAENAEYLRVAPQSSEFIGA
Chain of HER2 (P04626 676-1255 limits assumed): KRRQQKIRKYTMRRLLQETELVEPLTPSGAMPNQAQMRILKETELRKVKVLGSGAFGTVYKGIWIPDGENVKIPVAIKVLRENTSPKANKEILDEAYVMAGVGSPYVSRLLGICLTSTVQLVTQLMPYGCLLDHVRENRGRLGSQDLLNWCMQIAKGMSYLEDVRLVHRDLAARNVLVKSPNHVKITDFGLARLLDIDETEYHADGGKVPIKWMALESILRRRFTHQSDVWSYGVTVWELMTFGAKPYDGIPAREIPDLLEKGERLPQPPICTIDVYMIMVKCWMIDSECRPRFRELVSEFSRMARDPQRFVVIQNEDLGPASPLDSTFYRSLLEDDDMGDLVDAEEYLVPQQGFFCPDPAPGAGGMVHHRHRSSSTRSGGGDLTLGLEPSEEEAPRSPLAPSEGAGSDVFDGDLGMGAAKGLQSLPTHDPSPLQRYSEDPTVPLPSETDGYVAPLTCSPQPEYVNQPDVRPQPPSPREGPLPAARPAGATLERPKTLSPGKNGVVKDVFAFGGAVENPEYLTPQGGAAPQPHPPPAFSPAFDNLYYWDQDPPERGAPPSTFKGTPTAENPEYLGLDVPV

One may read the viability as a per cent measure of how many cells are alive, often set against a control. The term IC50 denotes the concentration that inhibits the measured activity by half. As a reminder, the GI50 is the concentration at which growth is held to half of that of the control. Read a high GI50 as lower sensitivity of the cells. `O=c1[nH]c2ccccc2c(O)c1/C=N/c1nc(-c2ccncc2)n[nH]1` [Compound 3e, (E)-4-hydroxy-3-(((3-(pyridin-4-yl)-1H-1,2,4-triazol-5-yl)imino)methyl)quinolin-2(1H)-one] registered a viability at 96 h, 50 µM in data set [1] of 86%. Besides, the “Caspase-8 Conc.” value in the data set on Caspase-8 worked out at 1.65 ± 0.20 ng/mL. Further, the “Caspase-8 Fold change” value with Caspase-8 worked out at 19. The half-maximal inhibitory concentration (IC50) in data set [2] was 34 ± 3 nM; at HER2, 39 ± 2 nM; in data set [3], 34 ± 3 nM; in data set [4] it was 31 ± 3 nM; against EGFR, 79 ± 5 nM. Besides, the concentration for 50% growth inhibition (GI50) in data set [5] worked out at 33 nM. For the same compound, the “Bcl-2 Conc.” value in the data set with Bcl-2 was 0.84 ng/mL.

In the case of `O=c1[nH]c2ccccc2c(O)c1C=Nc1ccc(NS(=O)(=O)c2ncccn2)cc1` [Compound 5a, N-(4-(((4-hydroxy-2-oxo-1,2-dihydroquinolin-3-yl)methylene)amino)phenyl) pyrimidine-2-sulfonamide], the viability at 96 h, 50 µM in [1] came to 87%. Further, the “Caspase-8 Conc.” value with Caspase-8 is 1.70 ± 0.15 ng/mL. In addition, in the data set with Caspase-8, the “Caspase-8 Fold change” value is 21. The 50% inhibitory concentration (IC50) in data set [2] worked out at 26 ± 2 nM; at HER2 it was 31 ± 2 nM; in data set [3] it was 26 ± 2 nM; in data set [4], 23 ± 2 nM; against EGFR it was 71 ± 4 nM. It took 25 nM to inhibit growth in data set [5] by half (GI50). For the same compound, the “Bcl-2 Conc.” value in the data set with Bcl-2 came out at 0.62 ng/mL. The “Bcl-2 Fold reduction” value in the data set on Bcl-2 (versus untreated control) is about 8.
